# Data from patent US12473310B2, “Vitamin D3 phosphate and pharmaceutically acceptable salts thereof, pharmaceutical compositions comprising the compound and methods for preparing the compound” (King's College London, priority 2020, dated 2025).
# What was measured:
# [1] = solubility in donor solution and thermodynamic activity (Table 4); format: physicochemical; settings: PG
# [2] = patch pre-formulation, saturated concentration in adhesive; format: physicochemical; settings: DURO-TAK 87-2051 adhesive
# Method: To each solution, 175 μL of the transdermal adhesive DURO-TAK 87-2051 (51.5 w/v %) was added, and vortexed. Then 2.0 μL of α-tocopherol and 2.5 μL of diethylene glycol monoethyl ether were added and vortexed. The visual solubility was assessed.
# To this solution 4 mg of α-tocopherol in 3 mL ethyl acetate was added and 167 μL of the transdermal adhesive DURO-TAK 87-2051 (51.5 w/v %) in 7 mL ethyl acetate with 6 μL diethylene glycol monoethyl ether was also added.
# Each solution (3×3 cm) was cast onto the backing (3M™ Scotchpak™ Polyester Backing Film Laminate 9730, UK) to determine the clarity, and the saturation limit of the test agents in the adhesive mixtures.
# physchem = format: physicochemical; settings: % Recovery
# Method: To validate the method of test agent recovery from the skin, solutions (1.0 mg/mL) of each vitamin D analogue were prepared in 100% PG. The precise concentrations in these samples were analysed by HPLC method described above. To assess the chemical stability of each test agent in the donor solutions used in the Franz cell experiments, 1.0 mg/mL of the samples prepared in 100% PG were incubated in a water bath at 37° C. for 24 h. In addition, to understand the chemical stability of each test agent in the extraction solvents used in the skin deposition studies, 1 mL of the drug sample in 100% PG was added into 10 mL of extraction fluid (MeOH for cholecalciferol, cholecalciferol phosphate acid, and MeOH:water, 90:10 for cholecalciferol phosphate disodium salt). Samples in PG (n=3) and samples in PG with the extraction fluid (n=3) were left in the water bath overnight at 37° C. and the sample concentration was analysed by the HPLC method described above. To assess whether the HPLC fluid had been impacted by any proteins that had leaked out of the skin, PG:water, 80:20 was added to donor and receiver chambers of porcine skin loaded Franz cells (n=3). A 5 mL sample of the receiver fluid was collected, and 25 μL of each test solution was added to this fluid and diluted to MeOH (1:1) and analysed by the HPLC method described previously. To verify the percentage of drug that could be recovered from the skin tissue, the skin sections were dermatomed (1 mm thickness) (n=3). The test solutions were spiked (50 μL) into a sample bottle containing the chopped dermatomed skin tissue. The samples containing the spiked drugs were left for 1 h for the drugs to absorb into the tissues. After the 1 h incubation period, 5 mL of extraction fluid (MeOH for cholecalciferol, cholecalciferol phosphate acid, and MeOH:water, 90:10 for cholecalciferol phosphate disodium salt) was added into each piece of the dermatomed skin tissue, then incubated in a shaking water bath for 1 h. The solutions were then tissue lysed by a tissue lyser for 40 min and homogenised by Ultra Turrax for 1 min and filtered using 0.45 μm syringe filters, centrifuged for 10 min at 13,000 rpm, and analysed by the HPLC method described above. In terms of cholecalciferol phosphate acid, after 1 h incubation and adding 5 mL extraction fluid, immediately the solutions with skin tissues were tissue lysed by a tissue lyser for 15 min. The solutions were then centrifuged for 10 min at 13,000 rpm and the supernatants were analysed by the HPLC method described above.
# [3] = skin permeation and deposition, automated Franz diffusion cell (Example 5); format: in vitro ADME; settings: PG formulation
# Method: For the final formulation, 61.5 mg of cholecalciferol phosphate acid in 4.1 mL hexane was added into 1.435 mL DURO-TAK 87-2051 (51.5 w/v %) with 16.4 μL α-tocopherol and 20.5 μL diethylene glycol monoethyl ether. Likewise, 120 mg of cholecalciferol phosphate disodium salt in 35.2 mL MeOH:water (10:1) was added to 1.336 mL of DURO-TAK 87-2051 (51.5 w/v %) in 56 mL ethyl acetate with 32 mg of α-tocopherol and 48 μL diethylene glycol monoethyl ether. Each formulation was spread evenly on the 10×10 cm patch tray and left overnight to dry completely. Following the complete drying of the solvents, the adhesive layer was covered by the M3 Release layer (SCOTCHPAK 9755, UK), compressed, and then cut using a 34 mm circular manual die cutter (SCP Super Cutting Press, UK).
# Subsequently, 1 mL aliquots were applied to the skin.
# The automated Franz diffusion cell was used to investigate the permeation of cholecalciferol, cholecalciferol phosphate salt and cholecalciferol phosphate acid through porcine skin. Fresh white adult porcine ears were obtained from a local butcher (Ginger Pig, UK). Any damaged ears were discarded. The ears were removed from the carcass after hair removal. […] The collected receiver fluid was analysed by HPLC methods described previously.
# At the end of the transport studies, the Franz cells were dismantled, and the donor solution was collected into bottles containing 10 mL of extraction fluid; MeOH for cholecalciferol, cholecalciferol phosphate acid and MeOH:water (90:10) for cholecalciferol phosphate salt, by wiping the surface of the skin and the inside of the donor compartment with two wet and then two dry cotton buds. […] Each collection was analysed by the HPLC method described above. Thus, the amount of each test agent on the surface of the skin, deposited in the skin, and passed into the receiver fluid was determined so that % mass recovery per cm^2 per skin could be calculated and drug deposition profiles could be obtained.
# [4] = chemical stability on storage over 4 weeks; format: physicochemical
# Method: The chemical stability of cholecalciferol phosphate acid/disodium salt was assessed in three different conditions over a 4-week period. Aliquots of 2 mg for each sample was stored at room temperature, 4° C., and −20° C. in a glass bottle covered with foil. A 20 mL sample of MeOH and MeOH:water (90:10) was added to cholecalciferol phosphate acid and cholecalciferol phosphate disodium salt, and the concentration and purity were assessed every week by the HPLC method described previously. The peak area was used to calculate sample concentration and the gradient of the data points being used to calculate the degradation rate.
smiles,measurement,setting,value
"C=C1CC[C@H](OP(=O)(O)O)C/C1=C/C=C1\CCC[C@@]2(C)C1CC[C@@H]2[C@H](C)CCCC(C)C (stereo in doubt) [Cholecalciferol phosphate acid, cholecalciferol phosphate acid]",Solubility in PG,[1],4690 µg/mL
same,saturated concentration in patch formulation (highest loading without precipitation),[2],5.02 w/w %
same,recovery at 0.091 mg/mL,physchem; chemical stability with extraction fluid,92.2 ± 2.26%
same,"recovery at 24 h, 1 mg/mL",physchem; chemical stability without extraction fluid,88.5 ± 3.35%
same,fold higher transdermal permeation through the skin compared to cholecalciferol,[3],about 9.34 fold
same,loss of the original compound over 4 weeks,[4]; 4° C.,9.98%
same,reduction of purity over 4 weeks,[4]; 4° C.,27.18%
same,loss of the original compound over 4 weeks,[4]; room temperature,77.15%
same,reduction of purity over 4 weeks,[4]; room temperature,72.2%
same,reduction of purity over 4 weeks,[4]; −20° C.,1.03%
